In patent US11753445B2, “Therapeutic peptides” (COHBAR, INC., priority 2016, dated 2023):
Marks after values point to notes of the source that are not given here.

Assays:
[1] = system: STAM Mouse Model of Non-alcoholic Steatohepatitis (NASH); test: NAFLD activity score in STAM mouse model of NASH (Example 18); type: in vivo, C57/BL6 mice; conditions: male STAM mice, N = 8, Mean (SD)
Description: In the STAM® model of NASH, C57/BL6 mice were injected with a single subcutaneous dose of 200 μg […], two days after birth to destroy pancreatic j-cells. At the age of 4 weeks, animals were put on a high fat diet (57% kcal from fat) and maintained on the same diet throughout the study. […] Beginning at 6 weeks of age, groups of STAM animals (8 animals per group) were treated with the peptides of the present invention administered twice daily by intraperitoneal injection, until study termination. A control group of STAM animals (n=8) received daily doses of telmisartan control compound (10 mg/kg). An additional group of normal mice (n=8) received no treatment. After 21 days of dosing, at 9 weeks of age, metabolic parameters were determined and animals were sacrificed. Liver samples were obtained and fixed, embedded in paraffin, stained with hematoxylin and eosin, and examined by light microscopy. The extent of steatosis and the non-alcoholic fatty liver disease (NAFLD) activity score (NAS) were determined histopathologically according to methods known in the art.

[2] = system: STAM Mouse Model of Non-alcoholic Steatohepatitis (NASH); test: Liver triglyceride and plasma ALT levels in STAM mouse model of NASH (Example 19); type: in vivo, C57/BL6 mice; conditions: male STAM mice, N = 8, Mean (SD)
Description: In the STAM® model of NASH, C57/BL6 mice were injected with a single subcutaneous dose of 200 μg […], two days after birth to destroy pancreatic j-cells. At the age of 4 weeks, animals were put on a high fat diet (57% kcal from fat) and maintained on the same diet throughout the study. […] […] A control group of STAM animals (n=8) received daily doses of telmisartan control compound (10 mg/kg). An additional group of normal mice (n=8) received no treatment. After 21 days of dosing, at 9 weeks of age, metabolic parameters were determined and animals were sacrificed. Liver triglyceride levels were determined by homogenization in chloroform-methanol and incubation overnight at room temperature. After washing with chloroform-methanol-water, the extracts were evaporated to dryness and dissolved in isopropanol. Liver triglyceride content was then measured by Triglyceride E-test (Wako, Japan). Plasma ALT levels were determined by using Fuji Dri-Chem 7000 (Fujifilm, Japan).

[3] = system: Diet Induced Obese (DIO) mice; test: Body weight and fat mass in Diet Induced Obese mice, 21-day study (Example 7); type: in vivo, Male C57BL/6 mice; conditions: male DIO mice; 21 days twice daily IP 15 mg/kg/dose; Mean (SD)
Description: Male C57BL/6 mice were maintained on a high fat diet for 12 to 22 weeks to develop diet induced obesity. Animals were randomized to treatment groups based on blood glucose levels and body weight. The peptides (SEQ ID No: 208 and SEQ ID NO: 210) were each administered to a group of male DIO mice twice daily by appropriate routes at a dose of 15 mg/kg/dose for 21 days (N=8 to 12 animals per treatment group). […] Metabolic parameters including body weight, blood glucose levels and food intake were monitored. Body mass distribution (fat vs lean) was determined where appropriate by quantitative whole body NMR prior to dosing and at the end of dosing.

[4] = system: Diet Induced Obese (DIO) mice; test: Serum triglycerides and enzyme markers of liver damage in DIO mice, 21 days (Example 9); type: in vivo, Male C57BL/6 mice; conditions: male DIO mice; for reduction in serum ALT compared to liraglutide or vehicle alone / reduction in serum AST compared to liraglutide or vehicle alone / reduction in serum triglycerides compared to liraglutide or vehicle alone: 21 days twice daily 15 mg/kg/dose; for ALT (U/L), mean concentration in serum / AST (U/L), mean concentration in serum / Triglycerides (mg/dL), mean concentration in serum: 21 days twice daily IP 15 mg/kg/dose, serum 2 hours after first dose on Day 21
Description: Male C57BL/6 mice were maintained on a high fat diet for 12 to 22 weeks to develop diet induced obesity. Animals were randomized to treatment groups based on blood glucose levels and body weight. The peptides (SEQ ID No: 208, and SEQ ID NO: 210) were each administered to a group of male DIG mice twice daily by appropriate routes at a dose of 15 mg/kg/dose for 21 days (N=8 to 12 animals per treatment group). […] Serum samples were obtained at termination 2 hours after the first dose on Day 21. Samples were analyzed for standard clinical chemistry parameters by methods well known in the art.

[5] = 21 days IP BID 15 mg/kg/dose beginning at 6 weeks of age

Row | Compound | NAFLD Activity Score (NAS) ([1]; 21 days PO QD 10 mg/kg/dose beginning at 6 weeks of age) | Liver Triglyceride Levels (mg/g liver) ([2]; 21 days PO BID 10 mg/kg) | Plasma ALT (U/L) ([2]; 21 days PO BID 10 mg/kg) | Decrease from Baseline in Body Weight (%) [3] | Decrease from Baseline in Fat Mass (g) [3] | reduction in serum ALT compared to liraglutide or vehicle alone [4] | reduction in serum AST compared to liraglutide or vehicle alone [4] | reduction in serum triglycerides compared to liraglutide or vehicle alone [4] | ALT (U/L), mean concentration in serum [4] [U/L] | AST (U/L), mean concentration in serum [4] [U/L] | Triglycerides (mg/dL), mean concentration in serum [4] [mg/dL] | NAFLD Activity Score (NAS) [1, 5] | Liver Triglyceride Levels (mg/g liver) [2, 5] | Plasma ALT (U/L) [2, 5]
1 | CCCc1nc2c(C)cc(-c3nc4ccccc4n3C)cc2n1Cc1ccc(-c2ccccc2C(=O)O)cc1 [Telmisartan, telmisartan, reference compound] | 2.6 (0.5)* | 18.8 (5.8)* mg/g liver | 39 (6)* U/L |  |  |  |  |  |  |  |  |  |  | 
2 | H-MRWQEMNYIFYPR-OH [SEQ ID NO: 208] |  |  |  | −17.2 (3.0) % | −6.4 (0.5) g | greater reduction | greater reduction | greater reduction | 40.4 | 70.0 | 76.0 | 3.7 (0.5)* | 35.3 (15.1)* mg/g liver | 43 (16)* U/L
3 | H-RWQEMNYIFYPR-OH [SEQ ID NO: 210] |  |  |  | −14.1 (4.8) % |  | greater reduction | greater reduction | greater reduction | 45.0 | 125 | 93.0 | 3.3 (1.1)* | 43.6 (9.3)* mg/g liver | 37 (13)* U/L
